Test results taken from patent US12704502B2, “Methods and systems for determining metabolic poise and capacity of living cells” (AGILENT TECHNOLOGIES, INC., priority 2021, dated 2026).

What was measured:
[1] = system: Human Peripheral Blood CD4+ T cells
Method: (§1) Uncoupled respiration measurements were measured in adherent cells epithelioid carcinoma Panc-1 cells (ATCC, CRL-1469) with FCCP. Cells were cultured in Dulbecco's Modified Eagle's Medium (DMEM) supplemented with 10% FBS at 37 C, 5% CO2 incubator according to supplier information. Day before the assay, cells were detached using Trypsin-EDTA solution and seeded in XFe96 cell culture miniplates (Agilent) at 10,000 cells/well. Cells were incubated for 18 hr at 37 C, 5% CO2 incubator. To measure OCR, cells were washed, and cell culture medium was replaced by XF DMEM pH 7.4 supplemented with 10 mM glucose, 2 mM glutamine and 1 mM pyruvate.

[2] = system: epithelioid carcinoma Panc-1 cells; settings: 2 μM FCCP, FIGS. 1A-1C
Method: as §1

[3] = system: Human Peripheral Blood NK cells; settings: 1.5, 2, 2.5 or 3 μM, FIGS. 12A-12B
Method: NK cells were cultured as described herein (e.g., in Example 1).

With FCCP the “OCR after the rotenone+antimycin A injection” value ([1]; T cells, FIGS. 2B, 3B) was “overestimation of OCR”, the “stability of uncoupled respiration during the 3 min of the measurement” value ([1]; T cells, after oligomycin, FIGS. 2A, 2C, 3A, 3C) was “inconsistent uncoupled respiration” and the “maximal respiration in titration of uncoupler” value ([1]; naïve CD4+ T cells, 0.5, 1, 1.5, 2, 2.5 or 3 μM, FIGS. 4A-4B) was “not as robust nor was there an increase in a dose-dependent manner”. For the same substance, the “oxygen consumption on addition of uncoupler” value [2] was “robust increase in oxygen consumption” and the “maximal respiration in titration of uncoupler” value [3] was “not as robust”.
